Assay results as given in patent publication US7906525B2, “Reduction of imiquimod impurities at four months using refined oleic acid” (priority 2004, dated 2011).
≈ marks a conversion by molar mass, not a printed value.

Assay: Solubility in water
Type: physicochemical

solubility: 0.79 µg/mL (≈ 3.29 µM)
Compound: CC(C)Cn1cnc2c(N)nc3ccccc3c21 [imiquimod, 1-(2-methylpropyl)-1H-imidazo[4,5-c]quinolin-4-amine]
